Data: US20090263354A1, “Compositions and siRNAs for inhibiting C/EBPbeta” (Yeda Research and Development Co., Ltd., priority 2006, published 2009)

How the values were obtained:
p53 = test: Induction of cellular p53 by cell death inducers, immunoblotting; assay type: cell-based, human; settings: WISH cells; 24 h (TNFα plus IFN-γ 48 h)
Method: The following experiment was carried out in order to confirm that the protective effect of C/EBPβ from cell death inducers is independent of the transfection process. Thus, B16 mouse melanoma cells, stably transfected with an inducible C/EBPβ expression vector (Clone F-10.9) were obtained from M. Revel and J. Chebath, Weizmann Institute of Science, Israel. Induction of C/EBPβ expression was triggered by addition of the antibiotic doxycycline (1 μg/ml, 24 h, Sigma) to the culture medium and was evaluated by both RT-PCR and immunoblotting. RT-PCR was performed as follows: F-10.9 cells (10^6) were harvested and total RNA was extracted by using the Rneasy® kit- from QIAGEN. cDNA was prepared by using random hexamers (Invitrogen) and M-MLV Reverse Transcriptase (Promega) according to the manufacturer's instructions. PCR was performed with the following primers: mouse C/EBPβ, 5′-[…] and 5′-[…]. Amplifications were done by initial denaturation (95° C., 4 min), 27 cycles of denaturation (95° C., 80 s), annealing (57° C., 60 s) and extension (72° C., 80 s), and final extension (72° C., 5 min). The resulting PCR products were resolved by agarose (1%) gel electrophoresis. […] For immunoblotting, cells were washed three times with ice-cold PBS and immediately frozen in liquid nitrogen. Cell pellets were re-suspended in four packed cell volumes of cytoplasmic buffer (10 mM Hepes, pH 7.9, 10 mM NaCl, 0.2 mM EDTA, 5% glycerol, 1.5 mM MgCl2, 1 mM DTT, 0.5 mM PMSF, 50 mM NaF, 0.1 mM Na3VO4, 2 mM EGTA, 10 mM Na2MoO4, 2 μg/ml each of leupeptin, pepstatin, and aprotinin). The suspension was freeze/thawn twice, incubated on ice for 20 min and then centrifuged (3,000×g, 10 min, 4° C.). The supernatant containing the proteins was collected and protein concentration was determined by a BCA Protein assay kit (Pierce), using BSA as a standard. Protein extracts (10 μg) were boiled in SDS/PAGE sample buffer containing 25 mM DTT and the supernatant was resolved by SDS/PAGE (10% acrylamide). The gel was then blotted onto a nitrocellulose membrane and proteins were detected with the indicated antibodies. Immune complexes were identified with a Super Signal detection kit (Pierce.).
It was recently reported that C/EBPβ binds to p53 and inhibits its activity, part of which could be induction of apoptosis. We carried out several experiments to find out if the protective effect of C/EBPβ over-expression against apoptosis induced by cell death inducers involves inhibition of p53. Initially, we determined which of the cell death inducers used for induction of apoptosis elevates the level of cellular p53. For this purpose, WISH cells were treated with; etoposide (50 μM for 24 h); MG262 (0.1 μM, for 24 h); TNFα (100 ng/ml) plus IFN-γ (1000 IU/ml) for 48 h; doxorubicin (1.8 μM, for 24 h); vincristine (0.1 μg/ml, for 24 h); FasL (60 ng/ml, 24 h); tunicamycin (1 μg/ml, for 24 h) or ALLN (26 μM, for 24 h), and extracts of these cells were subjected to immunoblotting with anti p53 (mab dd1+1801, 1:40 from M. Oren, WIS) as described in Example 6.

WISH cells = test: Protection of WISH cells from cell death by pre-incubation with IGF-1 or IL-6; assay type: cell-based, human
Method: WISH cells were pre-incubated with IGF-1 (200 ng/ml) for the indicated times. Doxorubicin (2 μM, for 16 h) was then added. […] The same results were obtained when apoptosis was induced by MG262, TNF-α plus IFN-γ, and tunicamycin (data not shown).
WISH Cells (30,000 cells/well) were pre incubated with 6.25, 12.5, 25, 50, 100, 200, 300, 400, 500, or 1000 IU/ml of IL-6 for 6 h and then 26 μM ALLN was added for 48 h.

Molecule	induction of p53 (immunoblotting with anti p53) (p53)	other results
CC(C)C[C@H](NC(=O)[C@H](CC(C)C)NC(=O)[C@H](CC(C)C)NC(=O)OCc1ccccc1)B(O)O [MG262]	extensive induction of p53	–
COc1cccc2c1C(=O)c1c(O)c3c(c(O)c1C2=O)C[C@@](O)(C(=O)CO)C[C@@H]3O[C@H]1C[C@H](N)[C@H](O)[C@H](C)O1 [doxorubicin]	extensive induction of p53	–
COc1cc([C@@H]2c3cc4c(cc3[C@@H](O[C@@H]3O[C@@H]5CO[C@@H](C)O[C@H]5[C@H](O)[C@H]3O)[C@H]3COC(=O)[C@H]23)OCO4)cc(OC)c1O [etoposide]	did not induce p53	–
CC[C@]1(O)C[C@H]2CN(CCc3c([nH]c4ccccc34)[C@@](C(=O)OC)(c3cc4c(cc3OC)N(C=O)[C@H]3[C@@](O)(C(=O)OC)[C@H](OC(C)=O)[C@]5(CC)C=CCN6CC[C@]43[C@@H]65)C2)C1 [vincristine]	did not induce p53	–
IGF-1: growth factor IGF-1 added to the culture medium	–	protection of WISH cells from doxorubicin (WISH cells; IGF-1 200 ng/ml pre-incubation, doxorubicin 2 μM, 16 h): did not protect; protection of WISH cells from other apoptosis inducers (WISH cells; IGF-1, apoptosis induced by MG262, TNF-α plus IFN-γ, and tunicamycin, data not shown): same results
IL-6: cytokine IL-6	–	protection from apoptosis induced by ALLN (WISH cells; IL-6 6.25-1000 IU/ml, 6 h before ALLN 26 μM, 48 h): did not protect
tunicamycin	did not induce p53	–
FasL: Fas ligand, cytotoxic cytokine (protein, UniProt P48023 130-281, looked up) Tumor necrosis factor ligand …: QIGHPSPPPEKKELRKVAHLTGKSNSRSMPLEWEDTYGIVLLSGVKYKKGGLVINETGLYFVYSKVYFRGQSCNNLPLSHKVYMRNSKYPQDLVMMEGKMMSYCTTGQMWARSSYLGAVFNLTSADHLYVNVSELSLVNFEESQTFFGLYKL	did not induce p53	–
